Like-named read-outs stand apart in the source and are kept apart here.

The text below walks through data of patent US8084602B2, “Porphyrin derivatives and their use in photodynamic therapy” (Destiny Pharma Limited, priority 2002, dated 2011).

Assay [1] has as its system S. aureus ATCC BAA-44 (a methicillin resistant S. aureus). Kind of assay: Cell survival (colony forming unit) with or without illumination. It is filed as cell-based, Staphylococcus aureus. As to conditions: S. aureus. How it is done: (§1) The toxic effects of exemplary compounds of the invention against two bacterial strains, the Gram negative bacterium Escherichia coli (strain ATCC 25922) and the Gram positive bacterium Staphylococcus aureus (methicillin-resistant strain ATTC BAA-44), were evaluated by measuring the extent of growth inhibition (bacteriostatic effect) and growth […] (cytocidal effect) in the dark and upon light exposure. Initial compound screening was undertaken using white light [390-740 nm] (150 mW/cm^2) for various timepoints of a concentration of 3 μM (see Table 1). Further experiments were undertaken on those compounds identified from this initial screen using a light source emitting light at a wavelength between 417-420 nm at 15.2 mW/cm^2, 13.68 J/cm^2 (Waldmann Eclairage SA, France) (see Table 20.
For the further investigation of the exemplary compounds (Table 2), the following protocol was adopted: • (i) Bacteria (S. aureus BAA-44 and E. coli 25922) were grown in brain heart infusion (BHI) broth until they reached the stationary phase of growth. • (ii) The cells were harvested by centrifugation (3000 g for 15 min) with a table centrifuge, washed with 10 mM PBS at pH 7.4 containing 2.7 mM KCl and 0.14 M NaCl and suspended in PBS at an optical density of 0.7 at 650 nm corresponding to 10^8-10^9 cells/ml. • (iii) The bacteria, at the desired cell density (˜10^8 cells/ml) were incubated for 5 min in the dark with various concentrations of the exemplary compounds. • (iv) At the end of the incubation period the cells were washed three times with PBS, suspended in PBS, transferred into a 96-well microtitre plate (200 μl/well) and illuminated for 15 min with the Waldmann light source (15.2 mW/cm^2; 13.7 J/cm^2). The cells were illuminated from the bottom of the plate laying it on the glass cover of the lamp. • (v) After illumination, cell survival was determined by plating serially diluted aliquots of treated and untreated (i.e. no exemplary compound or light present) cells onto brain heart agar (BHA) and counting the number of colonies after 18-24 h incubation at 37° C.
the above colony forming unit (CFU) protocol was also used to investigate the photodynamic activity of very low concentrations of the compounds of the invention.

Assay [2] concerns Escherichia coli (strain ATCC 25922). Kind of assay: Initial screening: growth inhibition after white light illumination. In kind it is cell-based. The note with it: Escherichia coli. As for the experimental part:
as §1
(§2) The following protocol was used for the initial screening of the exemplary compounds (Table 1) (see Reddi et al., 2002, Photochem. Photobiol. 75(5):462-470): • (i) E. coli and S. aureus cells were grown overnight on brain heart infusion agar, resuspended in brain heart infusion broth, harvested by centrifugation (3000 g for 15 minutes) and washed once with phosphate buffered saline (PBS) at pH 7.4 consisting 2.7 mM KCl and 0.14 M NaCl. • (ii) The cells were then resuspended in PBS to an optical density at 650 nm of 0.7, which corresponds to a density of 10^8 to 10^9 cells/ml. • (iii) Next, the cells were incubated in PBS in the dark for 5 minutes with 3.0 μM of the compound to be tested. • (iv) After dark incubation, cells were illuminated with white light (wavelength: 390 to 740 nm) (150 mW/cm^2) for up to 30 minutes. During illumination, the cells were kept at 37° C. and magnetically stirred. • (v) Finally, treated and untreated (control) cells were diluted in brain heart infusion broth and maintained at […] while the absorbance of the suspension at 650 nm was monitored at predetermined time points for determining growth curves.
(§3) The percent of growth inhibition in the treated cells was calculated by the following equation: [1−(Ax−A0)/(Ac−A0)]×100 where Ax Ac are the absorbances measured after 3 hours incubation, for the treated and control cell suspensions, respectively, and A0 represents the initial absorbance.

Assay [3] concerns Staphylococcus aureus (methicillin-resistant strain ATTC BAA-44). The description is as above. It is filed as cell-based. The note with it: Staphylococcus aureus. How it is done: as §1, §2, §3
The mark [4] stands for this setting: dark toxicity (no illumination), 1 μM.
The mark [5] stands for this setting: dark toxicity (no illumination), 10 μM.
Setting [6] is: photodynamic activity, 1 μM, illumination 15 min.

In the case of `CCCCCCCCCCCc1c2nc(cc3ccc([nH]3)c(-c3cc(OCCC[N+](C)(C)C)cc(OCCC[N+](C)(C)C)c3)c3nc(cc4ccc1[nH]4)C=C3)C=C2.[Cl-].[Cl-]` [Compound 6, 5-[3,5-bis-(3-Trimethylammonio-propyloxy)-phenyl]-15-undecyl-porphyrin dichloride], the Log reduction in assay [1] (setting [4]) is given as 1 (<10^−1); in assay [1] (setting [5]), 2 (10^−2); in assay [1] (photodynamic activity, 0.1 μM, illumination 15 min) it was 3 (10^−3); in assay [1] (setting [6]) it was 6 (10^−6). Moreover, the inhibition at 3 µM was 30% in assay [2] (ATCC25922, 5 min, E. coli, 5 min incubation, illumination time 5 min, read-out: Growth inhibition (%)); 9% in assay [2] (ATCC25922, E. coli, 5 min incubation, illumination time 0 min, read-out: Growth inhibition (%)); 17% in assay [2] (ATCC25922, E. coli, 5 min incubation, illumination time 1 min, read-out: Growth inhibition (%)); 54% in assay [2] (ATCC25922, E. coli, 5 min incubation, illumination time 10 min, read-out: Growth inhibition (%)); 69% in assay [2] (ATCC25922, E. coli, 5 min incubation, illumination time 15 min, read-out: Growth inhibition (%)); 93% in assay [2] (ATCC25922, E. coli, 5 min incubation, illumination time 30 min, read-out: Growth inhibition (%)). Also, the inhibition at 3 µM was found to be 100% in assay [3] (BAA44, 5 min, S. aureus, 5 min incubation, illumination time 5 min, read-out: Growth inhibition (%)); 29% in assay [3] (BAA44, S. aureus, 5 min incubation, illumination time 0 min, read-out: Growth inhibition (%)); 100% in assay [3] (BAA44, S. aureus, 5 min incubation, illumination time 1 min, read-out: Growth inhibition (%)); 100% in assay [3] (BAA44, S. aureus, 5 min incubation, illumination time 10 min, read-out: Growth inhibition (%)); 100% in assay [3] (BAA44, S. aureus, 5 min incubation, illumination time 15 min, read-out: Growth inhibition (%)); 100% in assay [3] (BAA44, S. aureus, 5 min incubation, illumination time 30 min, read-out: Growth inhibition (%)).
On to `CCCCCCCCCCCOc1ccc(-c2c3nc(c(-c4ccc(OCCC[N+](C)(C)C)cc4)c4ccc([nH]4)c(-c4ccc(OCCC[N+](C)(C)C)cc4)c4nc(c(-c5ccc(OCCC[N+](C)(C)C)cc5)c5ccc2[nH]5)C=C4)C=C3)cc1.[Cl-].[Cl-].[Cl-]` [Compound 3, 5,10,15-tris-[4-(3-Trimethylammonio-propyloxy)-phenyl]-20-(4-undecyloxy-phenyl)-porphyrin trichloride, reference compound], for which the Log reduction in assay [1] (setting [4]) is given as <1 (<10^−1); in assay [1] (setting [5]) it was >3 (>10^−3); in assay [1] (setting [6]), >3 (>10^−3); in assay [1] (photodynamic activity, 10 μM, illumination 15 min), >6 (>10^−6). Moreover, the inhibition at 3 µM turned out to be 99% in assay [2] (ATCC25922, 5 min, read-out: Growth inhibition (%), E. coli, 5 min incubation, illumination time 5 min); 5% in assay [2] (ATCC25922, read-out: Growth inhibition (%), E. coli, 5 min incubation, illumination time 0 min); 68% in assay [2] (ATCC25922, read-out: Growth inhibition (%), E. coli, 5 min incubation, illumination time 1 min); 100% in assay [2] (ATCC25922, read-out: Growth inhibition (%), E. coli, 5 min incubation, illumination time 10 min); 99% in assay [2] (ATCC25922, read-out: Growth inhibition (%), E. coli, 5 min incubation, illumination time 15 min); 99% in assay [2] (ATCC25922, read-out: Growth inhibition (%), E. coli, 5 min incubation, illumination time 30 min). For the same compound, the inhibition at 3 µM stood at 100% in assay [3] (BAA44, 5 min, read-out: Growth inhibition (%), S. aureus, 5 min incubation, illumination time 5 min); 21% in assay [3] (BAA44, read-out: Growth inhibition (%), S. aureus, 5 min incubation, illumination time 0 min); 83% in assay [3] (BAA44, read-out: Growth inhibition (%), S. aureus, 5 min incubation, illumination time 1 min); 100% in assay [3] (BAA44, read-out: Growth inhibition (%), S. aureus, 5 min incubation, illumination time 10 min); 100% in assay [3] (BAA44, read-out: Growth inhibition (%), S. aureus, 5 min incubation, illumination time 15 min); 100% in assay [3] (BAA44, read-out: Growth inhibition (%), S. aureus, 5 min incubation, illumination time 30 min).
